Each compound was assayed on maize plants (assay: Pot trial: single root-exudate metabolites applied to soil, dry biomass of maize plants at 6 weeks). Conditions: 1 kg/ha, pot trial.
Type: in vivo
Source text: These metabolites were: gluconic acid, glyceric acid, lactic acid, glucose, threonic acid, fructose, aspartic acid, serine, glycerol, arabinose and glutamine. […] The effect of the metabolites was compared with a negative control (no treatment) and a positive control with a conventional phosphate fertiliser (triple superphosphate at a dose of 100 phosphorus fertiliser units —P2O5— per hectare). […] This level of assimilable phosphorus corresponds to 4.5 kg of P2O5 per hectare (considering 30 centimetres of arable soil and an average density of 1,300 kg/m^3, the mass per hectare would be approximately 3,900 tonnes).

Compound	Growth enhancement in maize (in words)
O=C(O)C(O)CO (centres unmarked) [Glyceric acid, 2,3-dihydroxypropanoic acid]	the most growth-enhancing metabolite in maize

Same assay, conditions: metabolite 1 kg/ha in pot with 3 kg soil (assimilable P 0.5 ppm), triple superphosphate 100 P2O5 units/ha

Compound	Dry biomass of maize plants at 6 weeks of growth, dry weight [g]
O=C[C@@H](O)[C@H](O)[C@H](O)CO [Arabinose]	1.26
N[C@@H](CC(=O)O)C(=O)O [Aspartic acid]	1.16
O=C(CO)[C@@H](O)[C@H](O)[C@H](O)CO [Fructose]	1.38
O=C(O)[C@H](O)[C@@H](O)[C@H](O)[C@H](O)CO [Gluconic acid]	1.77
NC(=O)CC[C@H](N)C(=O)O [Glutamine]	1.55
O=C(O)C(O)CO (centres unmarked) [Glyceric acid, 2,3-dihydroxypropanoic acid]	1.93
OCC(O)CO [Glycerol]	1.30
CC(O)C(=O)O (centres unmarked) [Lactic acid]	1.73
N[C@@H](CO)C(=O)O [Serine]	1.31
O=C(O)[C@@H](O)[C@H](O)CO [Threonic acid]	1.14

— patent US20220185744A1, “FERTILISING COMPOSITION WHICH INCLUDES A PLANT-ASSIMILABLE PHOSPHORUS AND CALCIUM POTENTIATOR AND USE THEREOF” (priority 2019, published 2022)
